From US4024277A, “Phosphoro-aminosulfenyl derivatives of benzofuran carbamates” (priority 1975, dated 1977)

Assays:
pea aphid [1] = assay: Systemic insecticidal activity (soil/water), pea aphid; type: in vivo, Acyrthosiphon pisum (Harris); conditions: Acyrthosiphon pisum, 48-hour exposure, read-out: % Kill, Pea Aphid
Description: (§1) c. Systemic Insecticidal Acitivity (Soil/Water)
(§2) In this test, a candidate insecticide, in solution, is added to the soil of either uninfested pinto bean seedlings (Phaseolus vulgaris) or uninfested broad bean seedlings (Vicia faba var. Windsor). The plant species used depend on the insect species in the test. Usually, a 72-hour translocation period before infestation is required, followed by a 48-hour exposure period, before evaluation of the tests. The insect species used in the systemic tests are Mexican bean beetle, southern armyworm, pea aphid, and twospotted spider mite.

plum curculio [2] = assay: Seven-day residual insecticidal activity, plum curculio; type: in vivo, Conotrachelus nenuphar (Herbst); conditions: Conotrachelus nenuphar, 48-hour exposure, read-out: % Kill, Plum Curculio
Text: (§3) b. Seven-Day Residual Insecticidal Activity
(§4) In this test, a candidate insecticide, in solution, is applied to uninfested plants or containers by dipping or spraying. A seven-day holding period is necessary before infestation. A 48-hour exposure period is observed before evaluation of the tests. The insect species used in this type of test are the same as those listed under initial activity.

twospotted spider mite [3] = assay: Seven-day residual insecticidal activity, twospotted spider mite; type: in vivo, Tetranychus urticae Koch; conditions: Tetranychus urticae, 48-hour exposure, read-out: % Kill, Twospotted Spider Mite
Text: as §3, §4

large milkweed bug [4] = assay: Initial insecticidal activity, milkweed bug; type: in vivo, Oncopeltus fasciatus (Dallas); conditions: Oncopeltus fasciatus, 48-hour exposure, read-out: % Kill, Milkweed Bug
Text: (§5) a. Initial Insecticidal Activity
(§6) In this test, a candidate insecticide, in solution, is applied to either infested or uninfested plants or containers by spraying or dipping. (The preferred test procedure varies with insect species. The dipping method is better than the spraying method, and vice versa, for certain species of insects. Also some species are better adapted to the test by infesting after the chemical treatment rather than before.) Once the tests have been established, a 48-hour exposure period is observed before reading the tests. Insect species included in these tests are Mexican bean beetle (Epilachna varivestis Mulsant), pea aphid [Acyrthosiphon pisum (Harris)], southern armyworm [Spodoptera eridania (Cramer)], twospotted spider mite (Tetranychus urticae Koch), large milkweed bug [Oncopeltus fasciatus (Dallas)], plum curculio [Conotrachelus nenuphar (Herbst)], confused flour beetle (Tribolium confusum Jacquelin duVal) and granary weevil [Sitophilus granarius (Linnaeus)]. Test results are set forth in Table I. A control sample, comprising the solution without the candidate insecticide, is also included.

plum curculio [5] = assay: Initial insecticidal activity, plum curculio; type: in vivo, Conotrachelus nenuphar (Herbst); conditions: Conotrachelus nenuphar, 48-hour exposure, read-out: % Kill, Plum Curculio
Text: as §5, §6

Mexican bean beetle [6] = assay: Systemic insecticidal activity (soil/water), Mexican bean beetle; type: in vivo, Epilachna varivestis Mulsant; conditions: Epilachna varivestis, 48-hour exposure, read-out: % Kill, Mexican Bean Beetle
Description: as §1, §2

Mexican bean beetle [7] = assay: Initial insecticidal activity, Mexican bean beetle; type: in vivo, Epilachna varivestis Mulsant; conditions: Epilachna varivestis, 48-hour exposure, read-out: % Kill, Mexican Bean Beetle
Text: as §5, §6

twospotted spider mite [8] = assay: Ovicidal activity against the twospotted spider mite; type: in vivo, Tetranychus urticae Koch; conditions: Tetranychus urticae, eggs, 7 to 10 days, read-out: % Kill (ovicidal)
Description: d. Ovicidal Activity Against the Twospotted Spider Mite
In this test, Pinto bean seedlings are infested with female twospotted spider mites; about 3-4 hours are allowed for egg deposition. Plants are then dipped in TEPP (tetraethylpyrophosphate-commercial emulsifiable concentrate (EC)) solution containing 936 ppm of active ingredient. TEPP kills motile forms on the leaf and promptly degrades without effecting the egg stage. Two to three hours after TEPP treatment the plants are again dipped -- this time into a candidate insecticide solution. The test plants are maintained for 7 to 10 days. Termination of exposure is determined by the time required to attain complete hatch in the untreated check.

large milkweed bug [9] = assay: Seven-day residual insecticidal activity, milkweed bug; type: in vivo, Oncopeltus fasciatus (Dallas); conditions: Oncopeltus fasciatus, 48-hour exposure, read-out: % Kill, Milkweed Bug
Text: as §3, §4

confused flour beetle [10] = assay: Seven-day residual insecticidal activity, confused flour beetle; type: in vivo, Tribolium confusum Jacquelin duVal; conditions: Tribolium confusum, 48-hour exposure, read-out: % Kill, Confused Flour Beetle
Text: as §3, §4

southern armyworm [11] = assay: Initial insecticidal activity, southern armyworm; type: in vivo, Spodoptera eridania (Cramer); conditions: Spodoptera eridania, 48-hour exposure, read-out: % Kill, Southern Armyworm
Text: as §5, §6

confused flour beetle [12] = assay: Initial insecticidal activity, confused flour beetle; type: in vivo, Tribolium confusum Jacquelin duVal; conditions: Tribolium confusum, 48-hour exposure, read-out: % Kill, Confused Flour Beetle
Text: as §5, §6

Mexican bean beetle [13] = assay: Seven-day residual insecticidal activity, Mexican bean beetle; type: in vivo, Epilachna varivestis Mulsant; conditions: Epilachna varivestis, 48-hour exposure, read-out: % Kill, Mexican Bean Beetle
Text: as §3, §4

pea aphid [14] = assay: Seven-day residual insecticidal activity, pea aphid; type: in vivo, Acyrthosiphon pisum (Harris); conditions: Acyrthosiphon pisum, 48-hour exposure, read-out: % Kill, Pea Aphid
Text: as §3, §4

pea aphid [15] = assay: Initial insecticidal activity, pea aphid; type: in vivo, Acyrthosiphon pisum (Harris); conditions: Acyrthosiphon pisum, 48-hour exposure, read-out: % Kill, Pea Aphid
Text: as §5, §6

twospotted spider mite [16] = assay: Systemic insecticidal activity (soil/water), twospotted spider mite; type: in vivo, Tetranychus urticae Koch; conditions: Tetranychus urticae, 48-hour exposure, read-out: % Kill, Twospotted Spider Mite
Description: as §1, §2

southern armyworm [17] = assay: Seven-day residual insecticidal activity, southern armyworm; type: in vivo, Spodoptera eridania (Cramer); conditions: Spodoptera eridania, 48-hour exposure, read-out: % Kill, Southern Armyworm
Text: as §3, §4

southern armyworm [18] = assay: Systemic insecticidal activity (soil/water), southern armyworm; type: in vivo, Spodoptera eridania (Cramer); conditions: Spodoptera eridania, 48-hour exposure, read-out: % Kill, Southern Armyworm
Description: as §1, §2

twospotted spider mite [19] = assay: Initial insecticidal activity, twospotted spider mite; type: in vivo, Tetranychus urticae Koch; conditions: Tetranychus urticae, 48-hour exposure, read-out: % Kill, Twospotted Spider Mite
Text: as §5, §6

[20] = test system: beetles, true bugs, aphids and acarids; conditions: U.S. Pat. No. 3,474,171; cited from earlier work
[21] = Mammalian toxicity, 14-day LD50 in rats; conditions: rat, in vivo, Wistar derived albino rats, method of Miller and Tainter
Text: The compounds of this invention are characterized by advantageous mammalian toxicity values when compared with values for related compounds. This is shown by comparative values obtained with Wistar derived albino rats in 14-day tests. The animals were fed, housed and watered in accordance with standard laboratory procedures. The 14-day LD50 determination was estimated in accord with the method of Miller and Tainter (Experimental Biology and Medicine, 57, pp. 261-264, 1944).

CCOP(=O)(OCC)N(CCc1ccccc1)SN(C)C(=O)Oc1cccc2c1OC(C)(C)C2 [9(c), 2,3-Dihydro-2,2-dimethyl-7-benzofuranyl [(N-diethoxyphosphinyl)(N-2-phenylethyl)aminosulfenyl][methyl-carbamate]]
mortality at 5 ppm (pea aphid [1]; 5 ppm): 0% | mortality at 10 ppm (pea aphid [1]; 10 ppm): 0% | mortality at 39 ppm (pea aphid [1]; 39 ppm): 0% | mortality at 156 ppm (pea aphid [1]; 156 ppm): 100% | mortality at 39 ppm (plum curculio [2]; 39 ppm): 0% | mortality at 156 ppm (plum curculio [2]; 156 ppm): 0% | mortality at 1250 ppm (plum curculio [2]; 1250 ppm): 0% | mortality at 156 ppm (twospotted spider mite [3]; 156 ppm): 0% | mortality at 1250 ppm (twospotted spider mite [3]; 1250 ppm): 0% | mortality at 39 ppm (large milkweed bug [4]; 39 ppm): 6% | mortality at 156 ppm (large milkweed bug [4]; 156 ppm): 100% | mortality at 1250 ppm (large milkweed bug [4]; 1250 ppm): 100% | mortality at 39 ppm (plum curculio [5]; 39 ppm): 0% | mortality at 156 ppm (plum curculio [5]; 156 ppm): 5% | mortality at 1250 ppm (plum curculio [5]; 1250 ppm): 94% | mortality at 5 ppm (Mexican bean beetle [6]; 5 ppm): 0% | mortality at 10 ppm (Mexican bean beetle [6]; 10 ppm): 0% | mortality at 39 ppm (Mexican bean beetle [6]; 39 ppm): 0% | mortality at 156 ppm (Mexican bean beetle [6]; 156 ppm): 65% | mortality at 39 ppm (Mexican bean beetle [7]; 39 ppm): 60% | mortality at 156 ppm (Mexican bean beetle [7]; 156 ppm): 100% | mortality at 1250 ppm (Mexican bean beetle [7]; 1250 ppm): 100% | mortality at 156 ppm (twospotted spider mite [8]; 156 ppm): 0% | mortality at 1250 ppm (twospotted spider mite [8]; 1250 ppm): 94% | mortality at 39 ppm (large milkweed bug [9]; 39 ppm): 0% | mortality at 156 ppm (large milkweed bug [9]; 156 ppm): 85% | mortality at 1250 ppm (large milkweed bug [9]; 1250 ppm): 100% | mortality at 39 ppm (confused flour beetle [10]; 39 ppm): 0% | mortality at 156 ppm (confused flour beetle [10]; 156 ppm): 0% | mortality at 1250 ppm (confused flour beetle [10]; 1250 ppm): 12% | mortality at 39 ppm (southern armyworm [11]; 39 ppm): 0% | mortality at 156 ppm (southern armyworm [11]; 156 ppm): 8% | mortality at 1250 ppm (southern armyworm [11]; 1250 ppm): 79% | mortality at 39 ppm (confused flour beetle [12]; 39 ppm): 0% | mortality at 156 ppm (confused flour beetle [12]; 156 ppm): 3% | mortality at 1250 ppm (confused flour beetle [12]; 1250 ppm): 8% | mortality at 39 ppm (Mexican bean beetle [13]; 39 ppm): 8% | mortality at 156 ppm (Mexican bean beetle [13]; 156 ppm): 100% | mortality at 1250 ppm (Mexican bean beetle [13]; 1250 ppm): 100% | mortality at 39 ppm (pea aphid [14]; 39 ppm): 6% | mortality at 156 ppm (pea aphid [14]; 156 ppm): 0% | mortality at 1250 ppm (pea aphid [14]; 1250 ppm): 0% | mortality at 39 ppm (pea aphid [15]; 39 ppm): 0% | mortality at 156 ppm (pea aphid [15]; 156 ppm): 0% | mortality at 1250 ppm (pea aphid [15]; 1250 ppm): 100% | mortality at 39 ppm (twospotted spider mite [16]; 39 ppm): 0% | mortality at 156 ppm (twospotted spider mite [16]; 156 ppm): 0% | mortality at 312 ppm (twospotted spider mite [16]; 312 ppm): 2% | mortality at 156 ppm (southern armyworm [17]; 156 ppm): 0% | mortality at 1250 ppm (southern armyworm [17]; 1250 ppm): 25% | mortality at 39 ppm (southern armyworm [18]; 39 ppm): 0% | mortality at 156 ppm (southern armyworm [18]; 156 ppm): 21% | mortality at 312 ppm (southern armyworm [18]; 312 ppm): 80% | mortality at 39 ppm (twospotted spider mite [19]; 39 ppm): 3% | mortality at 156 ppm (twospotted spider mite [19]; 156 ppm): 6% | mortality at 1250 ppm (twospotted spider mite [19]; 1250 ppm): 98%

CNC(=O)Oc1cccc2c1OC(C)(C)C2 [carbofuran, 2,3-dihydro-2,2-dimethyl-7-benzofuranyl methyl-carbamate, reference compound]
control of beetles, true bugs, aphids and acarids [20]: effective in control of beetles, true bugs, aphids and acarids | LD50 at 336 h [21]: 12.2 mg/kg
